Experimental data published in ChEMBL document CHEMBL1125093, “Structure-activity relationships of 8-cycloalkyl-1,3-dipropylxanthines as antagonists of adenosine receptors” (J Med Chem, 1990).

Tests used:
[1] = biological target: Adenosine receptor A2 (Homo sapiens); assay: Antagonistic activity against adenosine A2 receptor in human platelets
[2] = biological target: Adenosine receptor A1 (Rattus norvegicus) (UniProt P25099); assay: Antagonist activity against adenosine A1 receptor in rat adipocytes

| Ki [1] [µM] | Ki [2] [nM] | SMILES |
| --- | --- | --- |
| 0.26 | 17 | CCCn1c(=O)c2nc(C3CCC(C(=O)N(C)CCN(C)C)CC3)[nH]c2n(CCC)c1=O (stereo in doubt; 14) |
| 0.45 | 85 | CCCn1c(=O)c2nc(C3CCC(C(=O)N(C)CCN(C)C)CC3)[nH]c2n(CCC)c1=O (stereo in doubt; 15) |
| > 10 | 12 | CCCn1c(=O)c2nc(C3CCC(NC(C)=O)CC3)[nH]c2n(CCC)c1=O (stereo in doubt; 9) |
| 0.68 | 14 | CCCn1c(=O)c2nc(NC3CCCCC3)[nH]c2n(CCC)c1=O |
| > 10 | 11 | CCCn1c(=O)c2nc(C3CC3C)[nH]c2n(CCC)c1=O (centres undefined) |
| 1 | 70 | CCCn1c(=O)c2nc(C3CCC(NC(C)=O)CC3)[nH]c2n(CCC)c1=O (stereo in doubt; 10) |
|  | 76 | CCCn1c(=O)c2nc(N3CCCC3)[nH]c2n(CCC)c1=O |
|  | 160 | CCCn1c(=O)c2[nH]c(C3CCC(N)CC3)nc2n(CCC)c1=O (stereo in doubt; 7) |
|  | 8 | CCCn1c(=O)c2nc([C@H]3CC[C@H](CNC(C)=O)CC3)[nH]c2n(CCC)c1=O |
| > 10 | 430 | CCCn1c(=O)c2nc(C3CCC(C(=O)O)CC3)[nH]c2n(CCC)c1=O (stereo in doubt; 1) |
| > 3 | > 3000 | CCCn1c(=O)c2nc(C3CCCCC3C(=O)O)[nH]c2n(CCC)c1=O (stereo in doubt; 4) |
| > 10 | > 10000 | CCCn1c(=O)c2nc(C3=C(C(=O)O)CCC3)[nH]c2n(CCC)c1=O |
| > 3 | 85 | CCCNC(=O)C1CCC(c2nc3c([nH]2)c(=O)n(CCC)c(=O)n3CCC)CC1 (centres undefined) |
| 0.49 | 22 | CCCn1c(=O)c2nc(N3CCCCC3)[nH]c2n(CCC)c1=O |
|  | 90 | CCCn1c(=O)c2[nH]c(C3CCC(N)CC3)nc2n(CCC)c1=O (stereo in doubt; 6) |
| 1.5 | 59 | CCCn1c(=O)c2nc(C3CCC(C(=O)O)CC3)[nH]c2n(CCC)c1=O (stereo in doubt; 2) |
| > 10 | 53 | CCCn1c(=O)c2nc(C3CCCC3C(=O)N(C)CCN(C)C)[nH]c2n(CCC)c1=O (stereo in doubt; 20) |
| > 10 | 140 | CCCn1c(=O)c2nc(C3CCCC3C(=O)O)[nH]c2n(CCC)c1=O (stereo in doubt; 17) |
|  | 20 | CCCn1c(=O)c2nc(C3CCC(CN)CC3)[nH]c2n(CCC)c1=O (centres undefined) |
| > 10 | 69 | CCCn1c(=O)c2nc(CC3CCCC3)[nH]c2n(CCC)c1=O |
| 0.56 | 130 | CCCn1c(=O)c2nc(C3CCC(C(=O)OC)CC3)[nH]c2n(CCC)c1=O (centres undefined) |
| 0.12 | 2.6 | CCCn1c(=O)c2nc(NC3CCC3)[nH]c2n(CCC)c1=O |
| > 10 | 660 | CCCn1c(=O)c2nc(C3CCC3C(=O)O)[nH]c2n(CCC)c1=O (centres undefined) |
| 0.13 | 8 | CCCn1c(=O)c2nc(NC3CCCC3)[nH]c2n(CCC)c1=O |
| > 10 | 100 | CCCn1c(=O)c2nc(C3CCCC3C(=O)O)[nH]c2n(CCC)c1=O (trans isomer) |
|  | 82 | CCCn1c(=O)c2[nH]c(C34CC5CC(CC(C5)C3)C4)nc2n(CCC)c1=O |
| 1 | 41 | CCCn1c(=O)c2nc(C3CCCC(NC(C)=O)C3)[nH]c2n(CCC)c1=O (centres undefined) |
| > 10 | > 10000 | CCCn1c(=O)c2nc(C3CCCCC3C(=O)O)[nH]c2n(CCC)c1=O (stereo in doubt; 3) |
| > 10 | 50 | CCCn1c(=O)c2nc(C3CCCC(N)C3)[nH]c2n(CCC)c1=O (centres undefined) |
| > 3 | > 3000 | CCCn1c(=O)c2nc(C3CCCC3C(=O)N(C)CCN(C)C)[nH]c2n(CCC)c1=O (stereo in doubt; 19) |
